# Legend:
# [1] = Field Trial, corrosion rate by electrical resistance MicroCor probes in a production line; details: corrosion inhibitor formulations, gas/oil/brine multiphase flow
# From the text: Field corrosion rate data are obtained from a production line in an Alaskan field that is equipped with high sensitivity electrical resistance MicroCor probes (Rohrback Cosasco Systems, Santa Fe Springs, Calif.). The sensing element of the probe, positioned into gas/oil/brine multiphase flow, reads a cumulative metal loss that is transformed into corrosion rate. Once an uninhibited corrosion rate baseline has been established, corrosion inhibitor formulations are incrementally injected upstream of the probe over a period of thirty hours. The resulting drop in corrosion rates are used to calculates protection efficiency and establish the relative rankings of corrosion inhibitor formulations.
# Comparative test results for representative bis-quaternary ammonium salts prepared according to the methods of Examples 1 and 2, a commercially available quaternary ammonium salt and a commercially available alkylbenzyldimethylammonium salt are shown in Table 2.
# [2] = Wheelbox Test (corrosion of coupons in CO2-purged brine/hydrocarbon); details: actives only, 24 hours at 176° F., brine/LVT 200, 500 ppm acetic acid
# Protocol: Cleaned and pre-weighed coupons are put into bottles containing a mixture of brine (180 mL), and hydrocarbon (LVT 200, 20 mL) and 500 ppm of acetic acid and the resulting mixture is purged with carbon dioxide. An increasing amount of tested inhibitor (5, 10, 25 and 50 ppm) is added into the bottles, the air space in the bottles is purged with CO2 mixture and immediately capped to avoid air contamination. In addition to those bottles that are dosed with inhibitor, three bottles remain untreated. The complete set of capped test bottles is set on the rotating wheel, and run for 24 hours at 176° F. On conclusion of the test, the bottles are removed and allowed to cool to room temperature. The bottles are then uncapped and the coupons are removed, cleaned, dried and re-weighed. Corrosion rate and protection efficiency are then calculated by comparing the mass loss of inhibited coupons to those of the blanks.
# Comparative test results for representative bis-quaternary ammonium salts prepared according to the methods of Examples 1 and 2 and a commercially available quaternary ammonium salt are shown in Table 1.
# [3] = system: sulfate-reducing bacteria; test: Biostatic Assay (NACE standard, serial dilution); type: cell-based; details: actives only
# Protocol: The biostatic properties of representative bis-quaternary ammonium salts are characterized according to the current NACE standard—NACE TMO194094. Viable organisms are cultured from aqueous field samples in iron-rich media purchased from Commercial Microbiology (Houston, Tex.). Stock solutions of the viable organisms in ferrous media are serially diluted in triplicate. Black iron sulfide precipitates indicate micobial growth (of sulfate-reducing bacteria). Clear media solutions indicate complete cell death. Pure media solutions are used as controls and compared against media spiked with 5 to 500 ppm of a test compound. Additives that require increased dilutions to attain complete cell death […], relative to the standard. Those compounds that required fewer dilutions are relatively biostatic.
# Comparative test results for representative bis-quaternary ammonium salts prepared according to the methods of Examples 1 and 2 and commercially available quaternary ammonium salts A and B are shown in Table 3.
SMILES,Percent Protection ([1]; 3 ppm),Percent Protection ([1]; 6 ppm),Percent Protection ([1]; 11 ppm),Percent Protection ([1]; 22 ppm),Percent Protection ([1]; 44 ppm),Percent Protection ([2]; 5 ppm inhibitor),Percent Protection ([2]; 10 ppm inhibitor),Percent Protection ([2]; 25 ppm inhibitor),Percent Protection ([2]; 50 ppm inhibitor),log reduction of SRB growth ([3]; 10 ppm),log reduction of SRB growth ([3]; 25 ppm),log reduction of SRB growth ([3]; 100 ppm)
CCCCCCCCCCCC[N+](C)(C)CC(O)C[N+](C)(C)CCCCCCCCCCCC.CCCCCCCCCCCC[N+](C)(C)CC(O)C[N+](C)(C)CCCCCCCCCCCC.O=S(=O)([O-])[O-].[Cl-].[Cl-] [Example 1],60.5%,87.6%,89.8%,91.8%,98.3%,65%,81%,92%,91%,6 log,6 log,6 log
CCCCCCCCC=CCCCCCCCCN(CC(O)C[N+](C)(C)CCCCCCCCCCCC)CC(O)C[N+](C)(C)CCCCCCCCCCCC.[Cl-].[Cl-] (stereo not drawn) [Example 2],76.2%,96.2%,95.3%,97.8%,98.0%,21%,73%,86%,89%,0 log,6 log,6 log
